Measured values taken from ChEMBL document CHEMBL1201862, “PubChem BioAssay data set” (2004).
Blank lines part the entries; values can stand above or below the compound they belong to. Calls of active or inactive are those of the source.

Assays:
Aminopeptidase N = biological target: T1, Aminopeptidase N (Plasmodium falciparum FcB1/Columbia, UniProt O96935); assay: P. falciparum M1AAP inhibitors, biochemical, fluorogenic H-Leu-NHMec substrate, 1536-well (AID 1445); set-up: species or system Plasmodium falciparum 3D7, 3D7
T1 sequence (O96935 whole entry): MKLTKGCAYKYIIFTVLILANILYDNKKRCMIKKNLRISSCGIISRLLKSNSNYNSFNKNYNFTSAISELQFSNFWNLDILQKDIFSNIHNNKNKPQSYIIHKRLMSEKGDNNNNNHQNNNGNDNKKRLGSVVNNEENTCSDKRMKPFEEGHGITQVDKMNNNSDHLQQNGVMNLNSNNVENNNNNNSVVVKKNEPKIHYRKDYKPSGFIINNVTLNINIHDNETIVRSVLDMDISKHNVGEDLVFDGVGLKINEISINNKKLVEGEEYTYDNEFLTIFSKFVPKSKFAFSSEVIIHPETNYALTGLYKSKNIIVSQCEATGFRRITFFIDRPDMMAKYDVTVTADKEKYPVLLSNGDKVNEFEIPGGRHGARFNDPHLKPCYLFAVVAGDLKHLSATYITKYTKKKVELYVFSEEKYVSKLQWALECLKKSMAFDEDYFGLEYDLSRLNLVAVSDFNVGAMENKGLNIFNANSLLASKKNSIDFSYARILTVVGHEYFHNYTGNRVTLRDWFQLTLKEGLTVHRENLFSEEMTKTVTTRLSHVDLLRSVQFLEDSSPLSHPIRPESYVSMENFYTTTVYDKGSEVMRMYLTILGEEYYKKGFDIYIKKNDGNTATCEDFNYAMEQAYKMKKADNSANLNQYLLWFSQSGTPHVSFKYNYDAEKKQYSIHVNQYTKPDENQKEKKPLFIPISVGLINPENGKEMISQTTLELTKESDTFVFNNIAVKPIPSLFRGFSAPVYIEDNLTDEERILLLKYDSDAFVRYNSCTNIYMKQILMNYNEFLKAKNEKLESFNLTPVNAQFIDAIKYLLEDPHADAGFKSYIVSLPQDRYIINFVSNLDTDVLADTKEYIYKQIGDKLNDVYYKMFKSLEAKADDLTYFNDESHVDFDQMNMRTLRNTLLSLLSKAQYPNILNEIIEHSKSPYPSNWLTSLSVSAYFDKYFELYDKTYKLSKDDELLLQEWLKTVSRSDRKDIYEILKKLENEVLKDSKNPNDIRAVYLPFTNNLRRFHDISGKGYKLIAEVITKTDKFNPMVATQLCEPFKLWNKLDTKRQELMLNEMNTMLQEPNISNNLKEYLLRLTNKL

Leucine aminopeptidase = biological target: T2, Leucine aminopeptidase (Plasmodium falciparum 3D7, UniProt Q8IL11); assay: P. falciparum M17LAP inhibitors, primary screen, biochemical, fluorogenic H-Leu-NHMec substrate, 1536-well (AID 1619); format: functional
T2 sequence (Q8IL11 whole entry): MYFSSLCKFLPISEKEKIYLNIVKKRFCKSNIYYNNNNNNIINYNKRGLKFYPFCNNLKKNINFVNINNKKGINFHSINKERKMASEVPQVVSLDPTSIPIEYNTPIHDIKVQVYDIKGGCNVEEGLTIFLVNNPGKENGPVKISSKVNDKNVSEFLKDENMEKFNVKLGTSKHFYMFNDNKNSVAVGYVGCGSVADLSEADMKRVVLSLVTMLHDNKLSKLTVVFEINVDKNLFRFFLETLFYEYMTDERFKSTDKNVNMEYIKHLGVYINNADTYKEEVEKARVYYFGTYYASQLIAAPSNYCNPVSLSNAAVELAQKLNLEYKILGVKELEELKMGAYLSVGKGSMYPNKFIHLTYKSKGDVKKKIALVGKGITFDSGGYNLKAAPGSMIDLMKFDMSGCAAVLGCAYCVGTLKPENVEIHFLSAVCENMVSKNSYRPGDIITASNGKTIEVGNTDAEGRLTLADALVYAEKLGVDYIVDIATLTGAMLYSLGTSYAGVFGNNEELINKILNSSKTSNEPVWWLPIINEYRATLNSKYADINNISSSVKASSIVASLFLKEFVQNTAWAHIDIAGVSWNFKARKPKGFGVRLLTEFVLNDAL

Caspase-6 = biological target: T3, Caspase-6 (Homo sapiens, UniProt P55212); assay: human caspase-6 inhibitors, dose response, biochemical, VEID-R110 fluorescence, cherry-pick (AID 720632)
T3 sequence (P55212 whole entry): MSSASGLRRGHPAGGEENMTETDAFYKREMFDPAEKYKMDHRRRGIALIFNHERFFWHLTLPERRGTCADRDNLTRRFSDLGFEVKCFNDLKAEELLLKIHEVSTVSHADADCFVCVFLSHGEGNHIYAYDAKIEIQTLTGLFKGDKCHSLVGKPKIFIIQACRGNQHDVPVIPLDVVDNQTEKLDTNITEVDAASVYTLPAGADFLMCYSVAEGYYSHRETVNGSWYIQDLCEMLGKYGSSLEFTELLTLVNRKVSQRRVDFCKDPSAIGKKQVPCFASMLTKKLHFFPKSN

Cytochrome P450 3A4 = Cytochrome P450 3A4 (Homo sapiens, UniProt P08684); conditions: Potency;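 further: confirmatory qHTS run detecting inhibitors and substrates of CYP3A4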
[1] = control 3'UTR Renilla luciferase suppression, dose response, counter-screen for Shn3 inhibitor project, cell-based, Clone20-Shn3RL, cherry-picked (AID 624133); format: functional
[2] = HepG2 cell cytotoxicity, dose response, cytotoxicity control for Shn3 inhibitor project, CellTiter-Glo, cherry-picked (AID 624134); format: functional, cell-based
[3] = Shn3 3'UTR reporter inhibitors, dose response, cell-based, Clone20 osteoblasts, firefly luciferase, cherry-picked (AID 624132); format: functional;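 further: firefly luciferase luminescence from reporter carrying the Shn3 3'UTR in osteoblasts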
INS1 = assay: beta cell apoptosis inhibitors, cytokine rescue, dose response, luminescence, retest (AID 449756); format: functional, cell-based; conditions: Rattus norvegicus;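 further: cell death triggered by IL-1 beta plus TNF-alpha plus IFN-gamma mixture; protective hits raise ATP signal compared with cytokine alone wells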
[4] = biological target: Glyceraldehyde-3-phosphate dehydrogenase (Homo sapiens, UniProt P04406)
Cytochrome P450 2C9 = Cytochrome P450 2C9 (Homo sapiens, UniProt P11712)
[5] = biological target: T4, Corticotropin-releasing factor receptor 2/Corticotropin-releasing factor-binding protein (Homo sapiens, UniProt P24387+Q13324); assay: Dose Response confirmation of uHTS hits for small molecule antagonists of the CRF-binding protein and CRF-R2 receptor complex.; format: functional; conditions: read-out: IC50_Mean
T4 sequence (Q13324 whole entry): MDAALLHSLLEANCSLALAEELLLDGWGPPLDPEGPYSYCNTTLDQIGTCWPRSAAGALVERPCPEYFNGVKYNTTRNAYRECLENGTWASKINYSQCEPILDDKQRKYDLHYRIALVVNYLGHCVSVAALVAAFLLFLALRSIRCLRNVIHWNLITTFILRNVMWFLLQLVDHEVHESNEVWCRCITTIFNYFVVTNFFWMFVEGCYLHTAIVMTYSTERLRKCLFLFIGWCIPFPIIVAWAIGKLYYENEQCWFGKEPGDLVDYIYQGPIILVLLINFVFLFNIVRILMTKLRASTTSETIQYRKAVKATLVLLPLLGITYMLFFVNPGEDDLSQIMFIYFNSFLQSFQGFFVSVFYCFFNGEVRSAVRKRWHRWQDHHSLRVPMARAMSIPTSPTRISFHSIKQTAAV
T4 sequence (P24387 whole entry): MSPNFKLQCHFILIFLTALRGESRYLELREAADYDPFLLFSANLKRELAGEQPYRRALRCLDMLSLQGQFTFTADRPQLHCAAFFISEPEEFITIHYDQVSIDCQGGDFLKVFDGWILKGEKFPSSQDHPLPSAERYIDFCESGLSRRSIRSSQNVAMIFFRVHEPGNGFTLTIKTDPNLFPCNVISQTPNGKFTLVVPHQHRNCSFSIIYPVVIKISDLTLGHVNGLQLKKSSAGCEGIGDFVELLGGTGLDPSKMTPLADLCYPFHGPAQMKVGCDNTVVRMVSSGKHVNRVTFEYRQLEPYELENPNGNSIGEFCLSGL

Cytochrome P450 2C19 = Cytochrome P450 2C19 (Homo sapiens, UniProt P33261); assay: Cytochrome panel assay with activity outcomes. Panel member name: p450-cyp2c19 Compounds with AC50 equal or less than 10 uM are considered active; format: functional
[6] = biological target: T4, Corticotropin-releasing factor receptor 2/Corticotropin-releasing factor-binding protein; assay: activators of CRF receptor 2 with binding protein – uHTS hits, confirmation (AID 602473); format: functional; conditions: read-out: EC50_Mean

Cytochrome P450 3A4, sequence (P08684 whole entry): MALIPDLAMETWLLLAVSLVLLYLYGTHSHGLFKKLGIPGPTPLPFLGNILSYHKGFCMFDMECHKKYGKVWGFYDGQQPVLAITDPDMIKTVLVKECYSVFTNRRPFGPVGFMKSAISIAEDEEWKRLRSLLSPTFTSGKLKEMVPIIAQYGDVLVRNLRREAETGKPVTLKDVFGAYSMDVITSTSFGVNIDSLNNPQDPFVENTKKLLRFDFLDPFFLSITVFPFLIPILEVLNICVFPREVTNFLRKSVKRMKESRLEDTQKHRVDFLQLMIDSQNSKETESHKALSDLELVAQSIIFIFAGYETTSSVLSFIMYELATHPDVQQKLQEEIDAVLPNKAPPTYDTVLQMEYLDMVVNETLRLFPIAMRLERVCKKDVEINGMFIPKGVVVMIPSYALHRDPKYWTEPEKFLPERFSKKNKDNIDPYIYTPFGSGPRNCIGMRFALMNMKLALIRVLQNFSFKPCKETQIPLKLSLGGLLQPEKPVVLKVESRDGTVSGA
Glyceraldehyde-3-phosphate dehydrogenase, sequence (P04406 whole entry): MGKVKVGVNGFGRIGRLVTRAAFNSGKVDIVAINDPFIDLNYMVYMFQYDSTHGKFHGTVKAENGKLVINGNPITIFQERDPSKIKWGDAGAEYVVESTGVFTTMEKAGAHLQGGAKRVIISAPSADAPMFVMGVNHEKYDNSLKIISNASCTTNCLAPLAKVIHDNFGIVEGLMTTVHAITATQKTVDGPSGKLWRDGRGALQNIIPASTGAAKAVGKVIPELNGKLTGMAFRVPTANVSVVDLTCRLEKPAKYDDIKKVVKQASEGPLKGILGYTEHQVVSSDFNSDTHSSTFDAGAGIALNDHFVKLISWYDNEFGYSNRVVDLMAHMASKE
Cytochrome P450 2C9, sequence (P11712 whole entry): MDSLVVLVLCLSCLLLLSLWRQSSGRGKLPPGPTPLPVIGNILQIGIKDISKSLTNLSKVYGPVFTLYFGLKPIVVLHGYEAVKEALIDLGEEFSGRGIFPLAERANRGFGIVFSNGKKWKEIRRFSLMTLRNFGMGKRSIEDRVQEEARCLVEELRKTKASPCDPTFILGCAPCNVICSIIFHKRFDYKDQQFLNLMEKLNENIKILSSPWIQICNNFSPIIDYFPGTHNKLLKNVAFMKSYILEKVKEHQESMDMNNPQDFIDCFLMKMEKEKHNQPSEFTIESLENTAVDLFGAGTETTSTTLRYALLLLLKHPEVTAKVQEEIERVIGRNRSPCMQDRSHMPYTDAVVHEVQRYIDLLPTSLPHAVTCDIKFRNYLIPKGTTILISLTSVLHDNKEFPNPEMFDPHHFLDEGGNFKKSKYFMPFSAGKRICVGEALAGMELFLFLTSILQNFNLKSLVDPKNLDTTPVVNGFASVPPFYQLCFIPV
Cytochrome P450 2C19, sequence (P33261 whole entry): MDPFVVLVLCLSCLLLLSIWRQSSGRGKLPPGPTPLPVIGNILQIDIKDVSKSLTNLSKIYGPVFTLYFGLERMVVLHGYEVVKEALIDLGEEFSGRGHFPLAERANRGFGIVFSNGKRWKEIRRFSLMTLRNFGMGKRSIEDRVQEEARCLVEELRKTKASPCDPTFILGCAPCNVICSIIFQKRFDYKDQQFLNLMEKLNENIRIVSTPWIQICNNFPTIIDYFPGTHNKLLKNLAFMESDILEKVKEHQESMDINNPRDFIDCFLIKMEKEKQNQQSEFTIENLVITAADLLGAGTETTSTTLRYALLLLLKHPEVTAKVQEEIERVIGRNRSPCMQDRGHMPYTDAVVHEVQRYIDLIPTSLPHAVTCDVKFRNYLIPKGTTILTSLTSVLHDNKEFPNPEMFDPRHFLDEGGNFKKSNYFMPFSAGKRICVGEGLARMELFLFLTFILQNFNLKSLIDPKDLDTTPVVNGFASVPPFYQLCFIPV

Compound: CC(C)Cn1c(N)c(C(=O)COC(=O)c2cc(C(F)(F)F)nc3c(C(F)(F)F)cccc23)c(=O)n(C)c1=O
- AC50 (Cytochrome P450 3A4): 3.16 µM (inconclusive)

Compound: COc1cc(CC(=O)Nc2nc(-c3ccc(F)c(F)c3)cs2)cc(OC)c1OC
- AC50 [1]: 19.2 µM (active)
- AC50 [2]: 6.77 µM (active)
- AC50 [3]: 3.92 µM (active)
- AC50 (INS1): 6.89 µM (active)

Compound: O=C(O)CS(=O)(=O)c1cccc(C(=O)O)c1
- IC50 [4]: > 100 µM (not active)

Compound: Cc1ccc(N2C(=O)C(Cl)=C(N3CCN(c4ncccn4)CC3)C2=O)cc1
- IC50 [4]: > 50 µM (inconclusive)

Compound: Cc1cc2nc(C)n(CCCN)c2cc1C.Cl
- AC50 (Cytochrome P450 2C9): inconclusive
- IC50 [5]: > 47.1 µM (inactive)
- AC50 (Cytochrome P450 2C19): inconclusive
- EC50 [6]: > 53 µM (inactive)

Compound: C=C1C([C@@]2(C)C(OC(C)=O)CC(=O)O[C@@](C)(COC(C)=O)C2CC(=O)OC)C(OC=O)C(OC(=O)C(O)C(C)CC)[C@]2(C)C(c3ccoc3)CC(=O)C12O (stereo not given in full)
- AC50 (Cytochrome P450 3A4): 10 µM (inconclusive)

The remaining lines, values ahead:

- IC50 (Aminopeptidase N): 21.9 µM (active)
- IC50 (Leucine aminopeptidase): 2.57 µM (active)
Compound: Cc1noc(NS(=O)(=O)c2ccc(NC(=O)CSc3n[nH]c4c5ccccc5nc-4n3)cc2)c1C

- IC50 (Leucine aminopeptidase): 6.58 µM (active)
Compound: CCOC(=O)c1oc2c(O)c(O)ccc2c(=O)c1-c1nncn1-c1ccccc1

- AC50 (Caspase-6): 47 µM (active)
Compound: Cc1ccccc1Nc1nc(N)nc(COC(=O)c2ccc([N+](=O)[O-])o2)n1

- AC50 (Cytochrome P450 3A4): 1.58 µM (inconclusive)
Compound: CC(=O)N1[C@H](C)C=C[C@]1(Cc1ccccc1)C(=O)NCCc1c[nH]c2ccccc12

- AC50 (Caspase-6): 10.5 µM (active)
Compound: Cc1cc(NS(=O)(=O)c2ccc(NC(=O)COc3ccccc3[N+](=O)[O-])cc2)no1

- AC50 (Cytochrome P450 3A4): 15.8 µM (inconclusive)
Compound: Clc1ccc(C2[C@H]3CN(CC4CCCCC4)[C@H](c4ccccc4)C34CC2(c2ccccc2)C4)cn1 (stereo not given in full)

- IC50 (Leucine aminopeptidase): 7.64 µM (active)
Compound: N=C(CSc1nc(-c2ccccc2)c(-c2ccccc2)o1)NO
